From the NIST ThermoML archive (doi:10.1016/j.fluid.2008.12.007)

Settings: Liquid, Ebulliometric method (Recirculating still)

C1CCCCC1 [cyclohexane]
Settings	vapor or sublimation pressure [kPa]
313.4 K	24.95
315.76 K	27.43
318.05 K	29.95
320.11 K	32.46
322.06 K	34.9
323.92 K	37.43
325.66 K	39.94
327.32 K	42.42
328.9 K	44.91
330.44 K	47.45
331.94 K	49.92
333.33 K	52.43
334.6 K	54.76
335.99 K	57.44
337.31 K	59.98
338.5 K	62.44
339.65 K	64.86
340.81 K	67.47
341.92 K	69.94
342.99 K	72.45
344.05 K	74.96
344.09 K	75.07
345.11 K	77.54
346.07 K	79.92
347.06 K	82.52
348.01 K	85.03
348.86 K	87.27
349.84 K	89.99
350.73 K	92.48
351.55 K	94.84
353.73 K	101.33

C1=CCCCC1 [cyclohexene]
Settings	vapor or sublimation pressure [kPa]
315.56 K	24.94
318.01 K	27.43
320.26 K	29.98
322.34 K	32.47
324.31 K	34.95
326.23 K	37.52
327.96 K	39.98
329.61 K	42.45
331.23 K	45.01
332.73 K	47.48
334.22 K	50.02
335.62 K	52.51
336.98 K	55.02
338.27 K	57.52
339.52 K	59.98
340.73 K	62.46
341.94 K	65.02
343.07 K	67.51
344.16 K	69.97
345.27 K	72.51
346.3 K	74.96
347.33 K	77.48
348.35 K	80.02
349.31 K	82.52
350.26 K	84.99
351.18 K	87.45
352.09 K	89.96
352.97 K	92.46
353.85 K	95.01
354.71 K	97.52
355.97 K	101.33

C=CCCCC [hex-1-ene]
Settings	vapor or sublimation pressure [kPa]
298.07 K	24.93
300.32 K	27.41
302.55 K	30.08
304.54 K	32.46
306.31 K	34.84
308.2 K	37.48
309.84 K	39.96
311.51 K	42.53
312.98 K	44.96
314.38 K	47.42
315.79 K	49.92
317.17 K	52.53
318.43 K	54.98
319.62 K	57.39
320.84 K	59.94
322.02 K	62.51
323.16 K	64.97
324.21 K	67.45
325.25 K	69.88
326.29 K	72.44
327.32 K	75.04
328.25 K	77.45
329.21 K	79.98
330.11 K	82.42
331.01 K	84.93
331.86 K	87.33
332.74 K	89.92
333.62 K	92.54
334.38 K	94.82
335.24 K	97.45
336.48 K	101.3

CCCCCC [hexane]
Settings	vapor or sublimation pressure [kPa]
303.16 K	25.04
305.43 K	27.5
307.43 K	29.95
309.54 K	32.44
311.47 K	35.07
313.25 K	37.51
314.84 K	39.98
316.52 K	42.44
317.92 K	45.02
319.49 K	47.45
320.76 K	50.01
322.26 K	52.52
323.37 K	55.03
324.59 K	57.32
325.89 K	60.07
326.95 K	62.46
328.09 K	64.77
329.19 K	67.22
330.16 K	69.64
331.45 K	72.45
332.28 K	74.82
333.48 K	77.48
334.39 K	79.84
335.33 K	82.31
336.26 K	84.88
337.14 K	87.26
338.02 K	89.85
338.91 K	92.35
339.73 K	94.85
340.44 K	97.02
341.79 K	101.32
